Results reported in patent US20230390251A1, “METHODS OF TREATING RIBONUCLEOTIDE REDUCTASE-RELATED DISEASES WITH A RIBONUCLEOTIDE REDUCTASE INHIBITOR” (TAIHO PHARMACEUTICAL CO., LTD., priority 2020, published 2023).

Tests used:
[1] = Body weight change as index of toxicity in MV-4-11 tumor-bearing nude mice; type: in vivo
[2] = tested on: 11 sarcoma cell lines listed in Table 1; experiment: Cell proliferation assay (CellTiter-Glo) in 11 sarcoma cell lines, correlated with SLFN11 mRNA expression; type: cell-based; settings: 100 micro mol/L Compound A, 3 days of exposure, Pearson's correlation (P<0.05)
Description: Cell proliferation assay was performed in accordance with conventional methods, available in Hasako. S., et al. Mol Cancer Ther 17, 1648-1658 (2018). Briefly, cells were plated and incubated for 1 day, followed by 3 days of exposure to the compound. After exposure to Compound A, viable cells were detected by using the CellTiter-Glo luminescent cell viability assay (Promega). The experiment was performed in triplicates.
Correlation analysis of SLFN11 expression and Compound A cytotoxicity was performed using Pearson's correlation coefficient (P<0.05) in JMP 13 software. The gene expression data of cell lines were available online CCLE (http://www.broadinstitute.org/ccle/home). Compound A cytotoxicity data from 11 cell lines in Table 1 were used for correlation analysis (data for correlation was not shown).
The correlation between SLFN11 mRNA expression and the relative growth percent of cells at 100 micro mol/L treatment by Compound A was analyzed in 11 sarcoma cell lines listed in Table 1.

[3] = tested on: A673 cells; experiment: Cell proliferation assay in A673 cells treated with siRNA against SLFN11; type: cell-based; settings: A673 Ewing sarcoma cells, siSLFN11 vs siControl, 3 days of exposure
Description: (§1) A673 cells, NCI-H460 cells and CFPAC-1 cells were transfected with 1 nM siRNAs for 24 h using Lipofectaminet®RNAiMAX Reagent (Thermo Fisher Scientific Inc.) and then re-seeded onto a 96-well plate for cell proliferation assay and caspase induction assay and onto dishes for immunoblotting analysis. siRNAs were obtained from Thermo Fisher Scientific Inc. as follows: Silencer® Select Negative Control #1 siRNA (#4390843 used as siControl), SLFN11 Silencer® Select Pre-designed siRNA (#s40703 used as siSLFN11-1, #s40704 as siSLFN11-2, and #s40702 as siSLFN11-3).
(§2) Cell proliferation assay was performed in accordance with conventional methods, available in Hasako, et al., ibid. Briefly, cells treated with siRNAs for 24 h were plated onto 96 well plate and incubated for 24 h, followed by 3 days of exposure to the compound A. After compound exposure, viable cells were detected by using the CellTiter-Glo luminescent cell viability assay (Promega).

[4] = tested on: A673 cells; experiment: Caspase-Glo 3/7 caspase induction assay in A673 cells treated with siRNA against SLFN11; type: cell-based; settings: 10 micro mol/L, 24 h; A673 cells transfected with siRNA against SLFN11
Description: as §1
(§3) Caspase induction assay was performed in accordance with conventional methods, available in Hasako., et al., ibid. Briefly, the cells with siRNAs for 24 h were seeded onto 96 well plate, incubated for 24 h, and then treated with Compound A for 24 h. Caspase induction was detected by using the Caspase-Glo 3/7 assay (Promega).

[5] = tested on: NCI-H460 cells; experiment: Cell proliferation assay in NCI-H460 cells treated with siRNA against SLFN11; type: cell-based; settings: non-small cell lung cancer cell line NCI-H460, siSLFN11 vs siControl, 3 days of exposure
Description: as §1, §2

[6] = tested on: CFPAC-1 cells; experiment: Caspase-Glo 3/7 caspase induction assay in CFPAC-1 cells treated with siRNA against SLFN11; type: cell-based; settings: 10 micro mol/L, 24 h; CFPAC-1 cells transfected with siRNA against SLFN11
Description: as §1, §3

[7] = target: T1, Ribonucleotide reductase (RNR) (Homo sapiens, UniProt P23921+P31350); settings: from the literature (NPL 7; PL 1); cited from earlier work
T1 sequence (P23921 1-792): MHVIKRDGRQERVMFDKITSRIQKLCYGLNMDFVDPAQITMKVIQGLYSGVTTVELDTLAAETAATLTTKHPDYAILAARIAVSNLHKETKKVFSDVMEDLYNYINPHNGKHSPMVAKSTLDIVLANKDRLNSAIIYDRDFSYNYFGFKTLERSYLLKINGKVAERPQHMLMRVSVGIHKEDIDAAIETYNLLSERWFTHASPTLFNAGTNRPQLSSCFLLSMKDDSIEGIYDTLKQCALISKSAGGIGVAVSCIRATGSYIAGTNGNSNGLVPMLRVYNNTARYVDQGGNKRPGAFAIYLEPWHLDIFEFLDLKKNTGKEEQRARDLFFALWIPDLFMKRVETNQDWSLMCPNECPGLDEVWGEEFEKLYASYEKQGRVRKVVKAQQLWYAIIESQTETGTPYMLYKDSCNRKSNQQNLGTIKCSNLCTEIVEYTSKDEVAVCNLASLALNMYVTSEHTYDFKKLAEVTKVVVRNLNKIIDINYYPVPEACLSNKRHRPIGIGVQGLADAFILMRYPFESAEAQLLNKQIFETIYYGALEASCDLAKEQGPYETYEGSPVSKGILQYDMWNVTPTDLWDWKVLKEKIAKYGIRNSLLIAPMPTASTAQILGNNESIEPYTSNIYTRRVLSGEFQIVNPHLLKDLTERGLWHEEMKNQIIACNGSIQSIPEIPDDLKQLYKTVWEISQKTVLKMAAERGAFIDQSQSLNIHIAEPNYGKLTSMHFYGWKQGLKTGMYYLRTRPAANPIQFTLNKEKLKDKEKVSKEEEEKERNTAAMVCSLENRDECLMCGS
T1 sequence (P31350 1-389): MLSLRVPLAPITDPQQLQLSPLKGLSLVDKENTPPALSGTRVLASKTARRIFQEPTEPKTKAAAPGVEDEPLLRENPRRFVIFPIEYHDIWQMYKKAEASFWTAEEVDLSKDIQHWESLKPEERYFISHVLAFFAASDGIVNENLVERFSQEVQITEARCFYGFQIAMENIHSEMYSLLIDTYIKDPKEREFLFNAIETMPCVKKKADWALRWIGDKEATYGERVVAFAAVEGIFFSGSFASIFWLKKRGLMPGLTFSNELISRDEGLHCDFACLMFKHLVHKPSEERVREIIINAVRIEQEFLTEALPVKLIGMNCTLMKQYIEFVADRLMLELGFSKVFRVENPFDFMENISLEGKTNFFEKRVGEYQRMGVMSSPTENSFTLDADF

SMILES: Cc1ccc(F)c([C@@H](C)[C@H](NS(=O)(=O)c2ccc(Cl)cc2C(N)=O)c2n[nH]c(=O)o2)c1C [Compound A, 5-chloro-2-(N-((1S,2R)-2-(6-fluoro-2,3-dimethylphenyl)-1-(5-oxo-4,5-dihydro-1,3,4-oxadiazol-2-yl)propyl)sulfamoyl)benzamide]
- recovery indicated by BW change %, Group 3QW1-1 compared with Group C-1 ([1]; 3QW (consecutive) 233 mg/kg/day vs continuous 100 mg/kg/day, total dosage 1400 mg/kg, Day 15, t-test p<0.05): better with a statistically significant difference relative to Group C-1
- recovery indicated by BW change %, Group 3QW1-2 compared with Group C-2 ([1]; 3QW (consecutive) 350 mg/kg/day vs continuous 150 mg/kg/day, total dosage 2100 mg/kg, Day 15, t-test p<0.05): better with a statistically significant difference relative to Group C-2
- recovery indicated by BW change %, Group 3QW2-1 compared with Group C-1 ([1]; 3QW (every other day) 233 mg/kg/day vs continuous 100 mg/kg/day, total dosage 1400 mg/kg, Day 15, t-test p<0.05): better with a statistically significant difference relative to Group C-1
- recovery indicated by BW change %, Group 3QW2-2 compared with Group C-2 ([1]; 3QW (every other day) 350 mg/kg/day vs continuous 150 mg/kg/day, total dosage 2100 mg/kg, Day 15, t-test p<0.05): better with a statistically significant difference relative to Group C-2
- body weight loss (BW change %) ([1]; 3QW Dosing Group 1, 233 or 350 mg/kg/day orally Days 1-3 and 8-10): body weight loss was observed
- body weight loss (BW change %) ([1]; 3QW Dosing Group 2, 233 or 350 mg/kg/day orally Days 1, 3, 5, 8, 10 and 12): body weight loss was observed
- BW change %, Group 5QW2-1 compared with Group C-1 ([1]; 5QW (2 on/1 off/3 on/1 off) 140 mg/kg/day vs continuous 100 mg/kg/day, total dosage 1400 mg/kg, Day 15): a statistically significant difference could not be observed
- recovery indicated by BW change %, Group 5QW2-2 compared with Group C-2 ([1]; 5QW (2 on/1 off/3 on/1 off) 210 mg/kg/day vs continuous 150 mg/kg/day, total dosage 2100 mg/kg, Day 15, t-test p<0.05): better with a statistically significant difference relative to Group C-2
- recovery indicated by BW change %, Group 5QW1-1 compared with Group C-1 ([1]; 5QW (consecutive) 140 mg/kg/day vs continuous 100 mg/kg/day, total dosage 1400 mg/kg, Day 15, t-test p<0.05): better with a statistically significant difference relative to Group C-1
- recovery indicated by BW change %, Group 5QW1-2 compared with Group C-2 ([1]; 5QW (consecutive) 210 mg/kg/day vs continuous 150 mg/kg/day, total dosage 2100 mg/kg, Day 15, t-test p<0.05): better with a statistically significant difference relative to Group C-2
- body weight loss (BW change %) ([1]; 5QW Dosing Group 1, 140 or 210 mg/kg/day orally Days 1-5 and 8-12): body weight loss was observed
- body weight loss (BW change %) ([1]; 5QW Dosing Group 2, 140 or 210 mg/kg/day orally Days 1-2, 4-6, 8-9 and 11-13): body weight loss was observed
- body weight loss (BW change %) ([1]; Continuous Dosing Group, 100 or 150 mg/kg/day orally once daily Day 1 to Day 14): body weight loss was observed
- BW change %, Group QOD-1 compared with Group C-1 ([1]; QOD 200 mg/kg/day vs continuous 100 mg/kg/day, total dosage 1400 mg/kg): a statistically significant difference could not be observed
- recovery indicated by BW change %, Group QOD-2 compared with Group C-2 ([1]; QOD 300 mg/kg/day vs continuous 150 mg/kg/day, total dosage 2100 mg/kg, Day 15, t-test p<0.05): better with a statistically significant difference compared with Group C-2
- body weight loss (BW change %) ([1]; QOD Dosing Group, 200 or 300 mg/kg/day orally every other day for two weeks): body weight loss was observed
- recovery indicated by BW change %, Group QW-1 compared with Group C-1 ([1]; QW 700 mg/kg/day vs continuous 100 mg/kg/day, total dosage 1400 mg/kg, Day 15, t-test p<0.05): better with a statistically significant difference than Group C-1
- recovery indicated by BW change %, Group QW-2 compared with Group C-2 ([1]; QW 1050 mg/kg/day vs continuous 150 mg/kg/day, total dosage 2100 mg/kg, Day 15, t-test p<0.05): better with Group QW-2 having a statistically significant difference relative to Group C-2
- body weight loss (BW change %) ([1]; QW Dosing Group, 700 or 1050 mg/kg/day orally once per week for two weeks): body weight loss was observed
- correlation between SLFN11 mRNA expression and relative cell growth (%) [2]: a significant correlation
- effect of SLFN11 knockdown with siRNA on the cytotoxic effect [3]: SLFN11 knockdown significantly suppressed the cytotoxic effect
- compound-induced caspase-3/7 activation after SLFN11 knockdown [4]: suppression
- effect of SLFN11 knockdown with siRNA on the cytotoxic effect [5]: SLFN11 knockdown significantly suppressed the cytotoxic effect
- compound-induced caspase-3/7 activation after SLFN11 knockdown [6]: suppression
- RNR inhibitory activity [7]: potent
